# Data as given in patent publication US20120034210A1, “COMPOSITIONS FOR POTENTIATING APOPOSIS SIGNALS IN TUMOUR CELLS” (INSTITUT BERGONIE, priority 2008, published 2012).
# “Also recorded” adds a separate entry of the source.
# Tests used:
# CD95 [1] = experiment: CD95 capping (CD95-CAP), fluorescence confocal microscopy; type: cell-based, human; conditions: leukemic cell lines; culture up to 24 hours
# Protocol: The cells were left to adhere on a slide pre-treated with poly-L-lysin (ESCO, VWR) for 5 minutes then incubated with the different reactants. The cells activated with the anti-Fas APO1-3 agonist antibody were washed and marked directly with the anti-mouse secondary antibody coupled with Alexa555 fluorochrome. The cells incubated with Rituximab (anti-CD20) were washed in a cold PBS buffer then fixed with a PBS/4% PFA (paraformaldehyde) solution for 15 min. […] The cells were washed in PBS medium then the slide was dried and the cells were placed in a mounting medium, Fluoroprep (Biomerieux) and analysed by fluorescence confocal microscopy (LSM SP5, Leica, Germany) with an x63 zoom. The DAPI (200 ng/ml) allowed colouring the nuclei.
# [2] = test system: DISC macro-complex (Fas/FADD/Caspase-8); experiment: DISC formation: Fas immunoprecipitation and Western blot; type: cell-based, human; conditions: H9, Jurkat, activated PBTs; non-cytotoxic concentrations; vs untreated cells
# Protocol: Cells were incubated with 1 μg/ml APO1-3 for 30 minutes at 4° C. After washing, cells were incubated for 15 minutes at 4° C. (0 minutes) or at 37° C. (15 minutes) and then lysed for 30 minutes at 4° C. in a lysis buffer (25 mM HEPES pH 7.4, 1% Triton X-100, 150 mM NaCl, 2 mM EDTA, a cocktail including protease inhibitors (Sigma)). The lysed cells were then centrifugated for 15 minutes at 15000 rpm in order to eliminate genomic DNA, and the supernatant was kept. The sepharose beads which were coupled with protein A were added to the lysate and the mixture was incubated for 2 hours. The beads were recovered, washed intensively and the immunoprecipitated proteins were re-suspended in a denaturing and reducing buffer (0.01M Tris-HCl pH6.8, 10% glycerol (v/v), 85 mM sodium dodecyl sulfate (SDS), 5% (v/v) […] and 0.005% (w/v) bromophenol blue) then heated at 100° C. for 5 minutes. The samples were deposited in an acrylamide/Bisacrylamide gel and separated by electrophoresis. The proteins were transferred from the gel into a nitrocellulose membrane using a semi-dry medium transfer technique for 2 hours at constant amperage (0.8 mA/cm^2). […] After transfer, the nitrocellulose membrane was saturated with proteins for 30 minutes with a TBST buffer (50 mM Tris pH=8, 0.15M sodium chloride, 0.05% (v/v) Tween-20) containing 5% (w/v) skimmed powdered milk (TBSTM). After washing with TBST, the membrane was incubated for 2 hours with the primary antibody in TBST. The membrane was washed intensively then incubated for one hour with TBST containing the secondary peroxidase-coupled antibody. […] This solution contained a substrate metabolised by peroxidase to yield a luminescent compound, which allowed marking a radiographic film (Amersham).
# [3] = test system: intracellular calcium concentration; experiment: Intracellular Ca2+ concentration, indo-1 (micro)spectrofluorimetry; type: cell-based, human
# Protocol: Principle: [Ca^2+]i was measured by microspectrofluorimetry using a calcium sensitive fluorescent probe: indo-1. When excited at 360 nm wavelength, the so-called monoexcitation/double emission indo-1 probe transmitted back in a spectrum ranging from 400 to 500 nm. Binding of Ca^2+ to indo-1 caused displacement of the emission spectrum after excitation. The emission maximum in the unbound form was located around 480 nm. The emission of the complexed form was around 405 nm. An increase of calcium concentration thus caused the emission to increase to 405 nm and the emission to decrease to 480 nm. The ratio of both fluorescence intensities allowed to be independent from the quantity of the probe and to determine the [Ca^2+]i according to the Grynkiewicz equation:
# [Ca^2+]i(nM)=Kd.β×(R−Rmin)/(Rmax−R)
# Rmax, Rmin and Kd. β were determined by combining electrophysiology (patch clamp) and spectrofluorimetry. Rmax was determined by placing in the patch pipette a medium containing 10 mM CaCl2. Rmin was obtained by placing as an intrapipette solution a calcium-deprived medium (10 mM EGTA).
# The cells were then rinsed with HBSS (800 rpm centrifugation for 2 minutes) and placed in an observation chamber on a glass coverslip. […] The excitation light is supplied by a Xenon lamp (100W). […] The substances to be tested were applied using a glass pipette positioned at some twenty μm of the studied cell and connected to a pneumatic system.
# The principle as well as the loading of the cells were identical with the measurement on single cells. In such a case, approx. 40,000 cells were placed in a quartz tub under constant agitation. The tub was then placed in a Hitachi spectrofluorimeter whereof the excitation monochromator was set to 350 nm. […] The signals were transmitted to a computer via an analogue/digital converter. So as to be able to apply the Grynkiewicz equation (see above) and translate the fluorescence ratios measured in calcium values, the calibration parameters were entered into the software. The substances to be tested were applied directly in the tube under constant agitation.
# CD95 [4] = experiment: CD95 expression; type: cell-based, human; conditions: 2-APB or BAPTA-AM regimens
# Protocol: This technique allowed detecting the presence of a protein on the cell surface. All the steps took place at 4° C. so as to reduce membrane proteins endocytosis and loss of cell labelling.
# Plasma membrane of the cells (10^6 cells per marking) was saturated for 5 minutes in 1 ml PBS containing 1% (w/v) BSA (bovine serum albumin) and 1% (v/v) foetal veal serum (FVS). This solution was used for washings and antibody dilutions.
# The cells were incubated for 30 minutes with 50 μl primary antibody (anti-Fas DX2 clone at 10 μg/ml), washed twice with the PBS/BSA/FCS solution, then incubated with 50 μl of a secondary antibody coupled with phycoerythrin for 30 minutes. After 3 washings, the cells were re-suspended in 200 μl PBS/BSA/SVF and analysed immediately by flow cytometry (FACsCalibur, BD Biosciences). The fluorescence intensity was analysed with the Cellquest software.
# caspase-8 = experiment: Caspase-8 activation/cleavage; type: cell-based, human
# [5] = test system: T and B leukemia/lymphoma cell lines and activated PBLs treated with FasL; experiment: Fas/CD95-mediated cell death (MTT test); type: cell-based, human
# Protocol: 2 to 4.10^4 cells were deposited in wells in a 96-well plate. The cells were incubated, in the presence of the different reactants for the times specified, at 37° C. in a final volume of 100 or 200 μl.
# The MTT test enabled to measure the activity of a mitochondrial enzyme, the dehydrogenase succinate which transforms MTT (or 3-(4,5-dimethylthiazol-2-yl)-2,5-diphenyltetrazolium) bromide originally yellow in colour and soluble, into blue formazan crystals, insoluble in aqueous phase. Upon completion of the different treatments, the living cells were quantified by adding in each well 15 μl PBS (Phosphate Buffered Saline) containing 5 mg/ml MTT. […] Spectrophotometric reading of absorbance was done at 570 nm. The measurement of the optical density is directly proportional to the number of living cells and the percentage of cell death was calculated with the following formula: 100-[(DO treated cells/DO non-treated cells)*100].
# [6] = test system: Raji, BL2, Jurkat cell lines and activated PBL; experiment: Apoptosis % by loss of mitochondrial membrane potential; type: cell-based, human; conditions: Zoledronate 10 μM in vitro; BL2, Raji and Jurkat, respectively
# Protocol: 2 to 4.10^4 cells were deposited in wells in a 96-well plate. The cells were incubated, in the presence of the different reactants for the times specified, at 37° C. in a final volume of 100 or 200 μl. The apoptotic cells were identified in the cellular populations by measuring mitochondrial de-polarisation. […] These potentiometric probes allowed monitoring the variations of the mitochondrial membrane potential. […] Following cell treatment with the different drugs, the former were placed in the presence of TMRM or DIOC6 at 10 nM concentration, for 20 minutes at 37° C. then the fluorescence of the cells was analysed by flow cytometry.
# Raji cells = experiment: Raji B lymphoma tumour growth in Rag2-/-γ-/- mice; type: in vivo; conditions: Raji s.c.; single agent; Rituximab 2 mg/kg, Zoledronate 4 mg/kg
# Protocol: The implantation of the tumours was done subcutaneously in Rag2−/−γ−/− mice flank aged from 5 to 7 weeks. Following implantation of the tumours, the mice were divided in groups of 8 to 10 animals for each treatment. The size of the tumour was assessed every day by measuring its width (w) and its length (I). Its volume was calculated according to the formula: V=lw^2/2. At the end of the experiment, the animals were sacrified, the tumour weight was measured.
# From 10^6 Raji cells were implanted subcutaneously in mice flank. The effects of Rituximab alone, of Zoledronate alone, are assessed on the growth of tumours. Rituximab (2 mg/kg) was delivered 3 times a week, Zoledronate was delivered 1 time a week.
# [7] = Mice calcemia after Zoledronate injection; type: in vivo; conditions: 4 mg/kg, one injection per week, 4 weeks, blood 3 days after last injection
# Protocol: Blood samples were taken from mice 3 days after the last Zoledronate or vehicle injection and calcemia was assessed by COBAS INTEGRA Calcium® (Roche) micro-method.
smiles,measurement,setting,value
"NCCOB(c1ccccc1)c1ccccc1 [2-APB, 2-Aminoethoxydiphenyl borate]",CD95-CAP formation,CD95 [1],drives CD95-CAP
same,DISC formation / FADD recruitment upon CD95 stimulation,[2],dramatically improved the DISC formation; also recorded: induction of DISC formation
same,increase in intracellular calcium induced by Thapsigargin and by extracellular calcium 0 to 5 mM,[3]; 2-APB 44 μM,reduced the increase in the intracellular calcium concentration
same,concentration of intracellular calcium,"[3]; high doses of 2-APB, T or B lymphoma cell lines",induced decreasing concentration of intracellular calcium
same,CD95-mediated peak of calcium,"[3]; non-cytotoxic concentrations, CD95 stimulation",totally abrogated the CD95-mediated peak of calcium
same,basal [Ca2+]i,[3]; pre-incubation of cells,induced a faint decrease in the basal [Ca^2+]i
same,expression of CD95,CD95 [4],did not modify the expression of CD95
same,kinetic of caspase-8 cleavage upon CD95L,caspase-8; T and B-cell lines,accelerated the cleavage of the initiator caspase-8
same,caspase-8 activation or mitochondrial depolarization by the agent alone,"caspase-8; during 60 minutes treatment, no CD95L",no trace of caspase-8 activation or mitochondrial depolarization was detected
same,CD95-mediated apoptotic signal in CD95-resistant cells,"[5]; Jurkat-CD95Q257K, pre-incubation with non-cytotoxic doses",restored the CD95-mediated apoptotic signal at a level comparable to the parental cell line
same,potentiation of FasL response,"[5]; high doses of 2-APB (44 μM), T or B lymphoma/leukemic cell lines",potentiated FasL response; also recorded: sensitizes drastically the Fas apoptotic signal
same,apoptotic signal by the agent alone,"[5]; leukemic cell lines, long-term culture up to 24 hours, no CD95L",did not trigger the apoptotic signal
"O=P(O)(O)C(O)(Cn1ccnc1)P(=O)(O)O [Zoledronate, zoledronate]","potentiation of apoptotic response to TRAIL, RTX and FasL",[6],does not potentiate the apoptotic response
same,tumour mass vs vehicle,Raji cells,not significantly affected
same,intracellular calcium concentration,"[3]; Zoledronate in vitro, all model cell lines tested",did not affect intracellular calcium concentration
same,calcemia vs vehicle,[7],significant (p<0.05) decrease in their calcemia
